Measured values taken from patent US11149064B2, “Vasoactive polypeptides for smooth muscle relaxation” (Vanderbilt University, priority 2016, dated 2021).
“Also recorded” adds a separate entry of the source. Non-standard residues stand in square brackets, D forms with d. No end group written: not given here. *: point of attachment. Palmitoyl = CCCCCCCCCCCCCCCC(=O)*; pS = N[C@@H](COP(=O)(O)O)C(=O)O

What was measured:
airway smooth muscle = assay: Relaxation of carbachol-precontracted porcine bronchial rings in a muscle bath; type: cell-based; details: polypeptides 0.1 to 1.0 mM (FIG. 8)
Experimental: (§1) Bronchial rings were isolated from fresh porcine lung, suspended in a muscle bath, and force generated were recorded. Carbachol-precontracted tissues were treated with escalating doses of the polypeptides indicated (0.1 to 1.0 mM). Contractile response was defined by stress, which was calculated using the force generated by the tissues. [10^5 Newtons (N)/m^2]=force (g)×0.0987/area, where area is equal to the wet weight [(mg)/length (mm at maximal length)] divided by 1.055). Percent relaxation were determined as a change to the maximal carbachol-induced contraction. Data are reported as mean responses±standard error of the mean. n=2-4.
as §1, with “Freshly isolated porcine bronchial” for “Bronchial”, “were” for “were isolated from fresh porcine lung,”, “bath.” for “bath, and force generated were recorded.”, “with” for “with escalating doses of”, “alone (−nife) or 0.1 uM nifedipine followed by the polypeptides (+nife).” for “indicated (0.1 to 1.0 mM).”, “n=1-2.” for “n=2-4.”
Bronchial rings were suspended in the muscle bath and equilibrated for 3 hours at a basal tension of 1 gram. Rings were then contracted with the agonist carbachol (150 nM) and then relaxed with cumulative doses of the polypeptides (0.1 to 1.0 mM).
Porcine bronchial rings were suspended in the muscle bath. Tissues were treated with channel blocker alone, polypeptide alone, or in combination. The results of these study are illustrated in FIG. 9.
Rat aortae were isolated from euthanized female Sprague-Dawley rats. Porcine bronchial rings were isolated from lung obtained from euthanized female Yorkshire pigs.

rat aortic smooth muscle = assay: Vasorelaxation of pre-contracted, endothelium-denuded rat aortic rings in a muscle bath; type: cell-based; details: for relaxation of rat aortic smooth muscle: phenylephrine-precontracted, endothelium-denuded rat aorta, escalating doses of polypeptide 0.1 to 1.0 mM (FIG. 2); for potency in vasorelaxation after chemical or formulatory modification of VASP1: compared with VASP1 (FIGS. 6 and 7)
Experimental: (§2) Freshly isolated rat aorta denuded of endothelium were suspended in a muscle bath and force generated were recorded. Phenylephrine-precontracted tissues were treated with either sodium nitroprusside (1 nM) or escalating doses of the polypeptides indicated (0.1 to 1.0 mM). Contractile response was defined by stress, which was calculated using the force generated by the tissues. [10^5 Newtons (N)/m^2]−force (g)×0.0987/area, where area is equal to the wet weight [(mg)/length (mm at maximal length)] divided by 1.055). Percent relaxation were determined as a change to the maximal phenylephrine-induced contraction. Data are reported as mean responses±standard error of the mean. n=3-17.
FIGS. 4A and B show graphs illustrating the effects of nimodipine on polypeptide induced vasorelaxation in phenylephrine precontracted rat aortic smooth muscle. Freshly isolated rat aorta denuded of endothelium were suspended in a muscle bath and force generated were recorded. Phenylephrine-precontracted tissues were treated either with escalating doses of the calcium channel blocker nimodipine (NIMO; 0.01 to 1 uM), the VASP1 polypeptide (0.1 to 1.0 mM), nimodipine (0.1 μM) followed by the VASP1 polypeptide (0.25 mM) [NIMO/VASP1], the VASP1 polypeptide (0.25 mM) followed by nimodipine (0.1 μM) [VASP1/NIMO], or simultaneous addition of nimodipine (0.1 μM) plus the VASP1 polypeptide (0.25 mM) [NIMO+VASP1]. Contractile response was defined by stress, which was calculated using the force generated by the tissues. [10^5 Newtons (N)/m^2]=force (g)×0.0987/area, where area is equal to the wet weight [(mg)/length (mm at maximal length)] divided by 1.055). (A) Percent relaxation were determined as a change to the maximal phenylephrine-induced contraction. Data are reported as mean responses±standard error of the mean. n=3-4. (B). Representative tracings of force generated in response to phenylephrine, nimodipine and the VASP1 polypeptides.
Freshly isolated rat aorta denuded of endothelium were suspended in a muscle bath and force generated were recorded. (A) Endothelin 1 (ET)-precontracted tissues were treated either with escalating doses of the calcium channel blocker nimodipine (NIMO; 0.001 to 0.1 uM), the VASP1 polypeptide (0.1 to 1.0 mM). (B) ET-precontracted tissues were treated with VASP1 polypeptide alone (0.25 mM), nimodipine alone (0.01 or 0.1 uM), nimodipine (0.01 or 0.1 uM) followed by the VASP1 polypeptide (0.25 mM), [NIMO/VASP1], the VASP1 polypeptide (0.25 mM) followed by nimodipine (0.01 or 0.1 uM), [VASP1/NIMO], or simultaneous addition of nimodipine (0.1 uM) plus the VASP1 polypeptide (0.25 mM) [NIMO+VASP1]. Contractile response was defined by stress, which was calculated using the force generated by the tissues. [10^5 Newtons (N)/m^2]=force (g)×0.0987/area, where area is equal to the wet weight [(mg)/length (mm at maximal length)] divided by 1.055). (A) Percent relaxation were determined as a change to the maximal phenylephrine-induced contraction. Data are reported as mean responses±standard error of the mean. n=2-12.
as §2, with “bath,” for “bath”, “polypeptides or polypeptide-containing nanoparticles” for “polypeptides”, “(N)/m^2]=force” for “(N)/m^2]−force”, “n=2-6.” for “n=3-17.”
Freshly isolated rat aorta denuded of endothelium were suspended in a muscle bath and force generated were recorded. […]

[1] = phenylephrine or endothelin-1 pre-contracted rat aortic rings

Substance	relaxation of airway smooth muscle (airway smooth muscle)	relaxation of rat aortic smooth muscle (rat aortic smooth muscle)	further results
YARAAARQARAIRQTADRWRVSLDVN [SEQ ID NO: 3, peptide analogue of HSP27]	directly cause smooth muscle relaxation	directly cause smooth muscle relaxation	
KLRKV(pS)K (KLRKV[pS]K) [SEQ ID NO: 9, control peptide without transduction domain]		do not directly cause relaxation; also recorded: exception	
IRQTADRWRVSLDVNLTVK [SEQ ID NO: 4, peptide analogue of HSP27]	directly cause smooth muscle relaxation	directly cause smooth muscle relaxation	
YARAAARQARA{K(palm)}GGKLRKV(pS)K (YARAAARQARAK(Palmitoyl)GGKLRKV[pS]K) [SEQ ID NO: 12]			potency in vasorelaxation after chemical or formulatory modification of VASP1 (rat aortic smooth muscle; [1]): directly cause smooth muscle relaxation with enhanced potency
YARAAARQARAKLRKV(pS)KQEEA (YARAAARQARAKLRKV[pS]KQEEA) [SEQ ID NO: 6, phosphopeptide analogue of VASP]	directly cause smooth muscle relaxation	directly cause smooth muscle relaxation	
YARAAARQARAK(pS)RVLKK (YARAAARQARAK[pS]RVLKK) [SEQ ID NO: 10, control peptide]		do not directly cause relaxation	relaxation of rat aortic smooth muscle (rat aortic smooth muscle; listed as scrVASP1): exception
YARAAARQARAA(pS)GVAVSDG (YARAAARQARAA[pS]GVAVSDG) [SEQ ID NO: 1, phosphopeptide analogue of cofilin]	directly cause smooth muscle relaxation	directly cause smooth muscle relaxation	
YARAAARQARAKLRKV(pS)KQEEASG (YARAAARQARAKLRKV[pS]KQEEASG) [SEQ ID NO: 7, phosphopeptide analogue of VASP]	directly cause smooth muscle relaxation	directly cause smooth muscle relaxation	
KLRKV(pS)KLTVK (KLRKV[pS]KLTVK) [SEQ ID NO: 8, phosphopeptide analogue of VASP]	directly cause smooth muscle relaxation	directly cause smooth muscle relaxation	
YARAAARQARAKLRKV(pS)K (YARAAARQARAKLRKV[pS]K) [SEQ ID NO: 5, phosphopeptide analogue of VASP]	directly cause smooth muscle relaxation	directly cause smooth muscle relaxation	vasorelaxation in combination with calcium channel blocker nimodipine (rat aortic smooth muscle; phenylephrine or endothelin-1 pre-contracted rat aortic rings, VASP1 0.25 mM with nimodipine 0.01 or 0.1 uM (FIGS. 4A-5B)): works in concert with calcium channel blocker, nimodipine, to enhance vasorelaxation; relaxation of rat aortic smooth muscle (rat aortic smooth muscle; listed as VASP1): sequence specific
YARAAARQARAA(pS)GVTVSDEVI (YARAAARQARAA[pS]GVTVSDEVI) [SEQ ID NO: 2, phosphopeptide analogue of cofilin]	directly cause smooth muscle relaxation	directly cause smooth muscle relaxation	
YARAAARQARA{K(palm)}LRKV(pS)K (YARAAARQARAK(Palmitoyl)LRKV[pS]K) [SEQ ID NO: 11]			potency in vasorelaxation after chemical or formulatory modification of VASP1 (rat aortic smooth muscle; [1]): directly cause smooth muscle relaxation with enhanced potency
